Assay results from ChEMBL document CHEMBL1201862, “PubChem BioAssay data set” (2004).
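Interpolation was linear, between the two tested concentrations surrounding the appropriate level; five concentrations were tested over 48 hours in 96-well plates. GI50 is the concentration that inhibits growth by half.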 Calls of active or inactive are those of the source. Rule as the data show it: active = GI50 up to about 1.1 µM and inactive = higher.

Assays:
Test in all cases: NCI-60 cell line screen, 48 h
786-0 = system: 786-0
A498 = system: A498
A549 = system: A549
ACHN = system: ACHN
CAKI-1 = system: CAKI-1
CCRF-CEM = system: CCRF-CEM
COLO 205 = system: COLO 205
DLD-1 = system: DLD-1
DMS-273 = system: DMS-273
EKVX = system: EKVX
HCC 2998 = system: HCC 2998
HCT-116 = system: HCT-116
HCT-15 = system: HCT-15
HL-60 = system: HL-60
HOP-18 = system: HOP-18
HOP-62 = system: HOP-62
HOP-92 = system: HOP-92
HT-29 = system: HT-29
IGROV-1 = system: IGROV-1
K562 = system: K562
KM-20L2 = system: KM-20L2
KM12 = system: KM12
LOX IMVI = system: LOX IMVI
LXFL 529 = system: LXFL 529
M14 = system: M14
Malme-3M = system: Malme-3M
NCI-H226 = system: NCI-H226
NCI-H23 = system: NCI-H23
NCI-H460 = system: NCI-H460
NCI-H522 = system: NCI-H522
OVCAR-3 = system: OVCAR-3
OVCAR-4 = system: OVCAR-4
OVCAR-5 = system: OVCAR-5
OVCAR-8 = system: OVCAR-8
RXF 393 = system: RXF 393
SF-268 = system: SF-268
SF-295 = system: SF-295
SF-539 = system: SF-539
SK-MEL-28 = system: SK-MEL-28
SK-MEL-2 = system: SK-MEL-2
SK-MEL-5 = system: SK-MEL-5
SK-OV-3 = system: SK-OV-3
SN12C = system: SN12C
SNB-19 = system: SNB-19
SNB-75 = system: SNB-75
SNB-78 = system: SNB-78
SR = system: SR
SW-620 = system: SW-620
TK-10 = system: TK-10
U-251 = system: U-251
UACC-257 = system: UACC-257
UACC-62 = system: UACC-62
UO-31 = system: UO-31
XF498 = system: XF498
DMS-114 = system: DMS-114
M19-MEL = system: M19-MEL
MOLT-4 = system: MOLT-4
RPMI-8226 = system: RPMI-8226

## CC1=CC2C(=O)N(c3ccccc3)C(=O)C2CC1n1[nH]c(=O)n(Cc2ccccc2)c1=O (stereo not drawn)
786-0
  GI50: > 100 µM (inactive)
A498
  GI50: > 100 µM (inactive)
A549
  GI50: > 100 µM (inactive)
ACHN
  GI50: > 100 µM (inactive)
CAKI-1
  GI50: > 100 µM (inactive)
CCRF-CEM
  GI50: > 100 µM (inactive)
COLO 205
  GI50: > 100 µM (inactive)
DLD-1
  GI50: > 100 µM (inactive)
DMS-273
  GI50: > 100 µM (inactive)
EKVX
  GI50: > 100 µM (inactive)
HCC 2998
  GI50: > 100 µM (inactive)
HCT-116
  GI50: > 100 µM (inactive)
HCT-15
  GI50: > 100 µM
HL-60
  GI50: > 100 µM (inactive)
HOP-18
  GI50: > 100 µM (inactive)
HOP-62
  GI50: > 100 µM (inactive)
HOP-92
  GI50: > 100 µM (inactive)
HT-29
  GI50: > 100 µM (inactive)
IGROV-1
  GI50: > 100 µM (inactive)
K562
  GI50: > 100 µM (inactive)
KM-20L2
  GI50: > 100 µM (inactive)
KM12
  GI50: > 100 µM (inactive)
LOX IMVI
  GI50: > 100 µM (inactive)
LXFL 529
  GI50: > 100 µM (inactive)
M14
  GI50: > 100 µM (inactive)
Malme-3M
  GI50: > 100 µM (inactive)
NCI-H226
  GI50: > 100 µM (inactive)
NCI-H23
  GI50: > 100 µM (inactive)
NCI-H460
  GI50: > 100 µM (inactive)
NCI-H522
  GI50: > 100 µM (inactive)
OVCAR-3
  GI50: > 100 µM (inactive)
OVCAR-4
  GI50: > 100 µM (inactive)
OVCAR-5
  GI50: > 100 µM (inactive)
OVCAR-8
  GI50: > 100 µM (inactive)
RXF 393
  GI50: > 100 µM (inactive)
SF-268
  GI50: > 100 µM (inactive)
SF-295
  GI50: > 100 µM (inactive)
SF-539
  GI50: > 100 µM (inactive)
SK-MEL-28
  GI50: > 100 µM (inactive)
SK-MEL-2
  GI50: > 100 µM (inactive)
SK-MEL-5
  GI50: > 100 µM (inactive)
SK-OV-3
  GI50: > 100 µM (inactive)
SN12C
  GI50: > 100 µM (inactive)
SNB-19
  GI50: > 100 µM (inactive)
SNB-75
  GI50: > 100 µM (inactive)
SNB-78
  GI50: > 100 µM (inactive)
SR
  GI50: > 100 µM (inactive)
SW-620
  GI50: > 100 µM (inactive)
TK-10
  GI50: > 100 µM (inactive)
U-251
  GI50: > 100 µM (inactive)
UACC-257
  GI50: > 100 µM (inactive)
UACC-62
  GI50: > 100 µM (inactive)
UO-31
  GI50: > 100 µM (inactive)
XF498
  GI50: > 100 µM (inactive)

## CCC1(c2c(F)c(F)c(N)c(F)c2F)CCC(=O)NC1=O (stereo not drawn)
786-0
  GI50: > 100 µM (inactive)
A498
  GI50: > 100 µM (inactive)
A549
  GI50: > 100 µM (inactive)
ACHN
  GI50: > 100 µM (inactive)
CAKI-1
  GI50: > 100 µM (inactive)
CCRF-CEM
  GI50: > 100 µM (inactive)
COLO 205
  GI50: > 100 µM (inactive)
DLD-1
  GI50: > 100 µM (inactive)
DMS-114
  GI50: > 100 µM (inactive)
DMS-273
  GI50: > 100 µM (inactive)
EKVX
  GI50: > 100 µM (inactive)
HCC 2998
  GI50: > 100 µM (inactive)
HCT-116
  GI50: > 100 µM (inactive)
HCT-15
  GI50: > 100 µM
HL-60
  GI50: > 100 µM (inactive)
HOP-18
  GI50: > 100 µM (inactive)
HOP-62
  GI50: > 100 µM (inactive)
HOP-92
  GI50: > 100 µM (inactive)
HT-29
  GI50: > 100 µM (inactive)
IGROV-1
  GI50: > 100 µM (inactive)
K562
  GI50: > 100 µM (inactive)
KM12
  GI50: > 100 µM (inactive)
LOX IMVI
  GI50: > 100 µM (inactive)
LXFL 529
  GI50: > 100 µM (inactive)
M14
  GI50: > 100 µM (inactive)
M19-MEL
  GI50: > 100 µM (inactive)
MOLT-4
  GI50: > 100 µM (inactive)
Malme-3M
  GI50: > 100 µM (inactive)
NCI-H226
  GI50: > 100 µM (inactive)
NCI-H23
  GI50: > 100 µM (inactive)
NCI-H460
  GI50: > 100 µM (inactive)
NCI-H522
  GI50: > 100 µM (inactive)
OVCAR-3
  GI50: > 100 µM (inactive)
OVCAR-4
  GI50: > 100 µM (inactive)
OVCAR-5
  GI50: > 100 µM (inactive)
OVCAR-8
  GI50: > 100 µM (inactive)
RPMI-8226
  GI50: > 100 µM (inactive)
SF-268
  GI50: > 100 µM (inactive)
SF-295
  GI50: > 100 µM (inactive)
SF-539
  GI50: > 100 µM (inactive)
SK-MEL-28
  GI50: > 100 µM (inactive)
SK-MEL-2
  GI50: > 100 µM (inactive)
SK-MEL-5
  GI50: > 100 µM (inactive)
SK-OV-3
  GI50: > 100 µM (inactive)
SNB-19
  GI50: > 100 µM (inactive)
SNB-75
  GI50: 38.7 µM (inactive)
SNB-78
  GI50: > 100 µM (inactive)
SR
  GI50: > 100 µM (inactive)
SW-620
  GI50: > 100 µM (inactive)
TK-10
  GI50: > 100 µM (inactive)
U-251
  GI50: > 100 µM (inactive)
UACC-257
  GI50: > 100 µM (inactive)
UACC-62
  GI50: > 100 µM (inactive)
UO-31
  GI50: > 100 µM (inactive)
XF498
  GI50: > 100 µM (inactive)

## O[C@]12c3ccccc3C1CCCC2N1CCOCC1 (stereo partly drawn)
786-0
  GI50: > 100 µM (inactive)
A549
  GI50: > 100 µM (inactive)
ACHN
  GI50: > 100 µM (inactive)
CCRF-CEM
  GI50: > 100 µM (inactive)
COLO 205
  GI50: > 100 µM (inactive)
DMS-114
  GI50: > 100 µM (inactive)
DMS-273
  GI50: > 100 µM (inactive)
EKVX
  GI50: > 100 µM (inactive)
HCT-116
  GI50: > 100 µM (inactive)
HCT-15
  GI50: > 100 µM
HL-60
  GI50: > 100 µM (inactive)
HOP-18
  GI50: > 100 µM (inactive)
HOP-62
  GI50: > 100 µM (inactive)
HT-29
  GI50: > 100 µM (inactive)
K562
  GI50: > 100 µM (inactive)
KM-20L2
  GI50: > 100 µM (inactive)
KM12
  GI50: > 100 µM (inactive)
LOX IMVI
  GI50: > 100 µM (inactive)
LXFL 529
  GI50: > 100 µM (inactive)
M14
  GI50: > 100 µM (inactive)
M19-MEL
  GI50: > 100 µM (inactive)
MOLT-4
  GI50: > 100 µM (inactive)
Malme-3M
  GI50: > 100 µM (inactive)
NCI-H226
  GI50: > 100 µM (inactive)
NCI-H23
  GI50: > 100 µM (inactive)
NCI-H460
  GI50: > 100 µM (inactive)
NCI-H522
  GI50: > 100 µM (inactive)
OVCAR-4
  GI50: > 100 µM (inactive)
OVCAR-8
  GI50: > 100 µM (inactive)
RPMI-8226
  GI50: > 100 µM (inactive)
RXF 393
  GI50: > 100 µM (inactive)
SF-268
  GI50: > 100 µM (inactive)
SF-295
  GI50: > 100 µM (inactive)
SK-MEL-28
  GI50: > 100 µM (inactive)
SK-MEL-2
  GI50: > 100 µM (inactive)
SK-MEL-5
  GI50: > 100 µM (inactive)
SK-OV-3
  GI50: > 100 µM (inactive)
SN12C
  GI50: > 100 µM (inactive)
SNB-19
  GI50: > 100 µM (inactive)
SNB-75
  GI50: > 100 µM (inactive)
SNB-78
  GI50: > 100 µM (inactive)
SR
  GI50: > 10 µM (inactive)
SW-620
  GI50: > 100 µM (inactive)
TK-10
  GI50: > 100 µM (inactive)
U-251
  GI50: > 100 µM (inactive)
UACC-257
  GI50: > 100 µM (inactive)
UACC-62
  GI50: > 100 µM (inactive)
UO-31
  GI50: > 100 µM (inactive)
XF498
  GI50: > 100 µM (inactive)
